Laboratory results: US20230322724A1, “HETEROCYCLIC COMPOUNDS AS CBP/EP300 BROMODOMAIN INHIBITORS” (AURIGENE ONCOLOGY LIMITED, priority 2020, published 2023)
pIC50: −log10 of the molar value.

What was measured:
Format in all cases: binding
[1] = target: T1, recombinant CREBBP bromodomain (Homo sapiens, UniProt Q92793); assay: CBP TR-FRET displacement assay; conditions: for pIC50: dose-response, read-out: IC50 (group A, B, C); for inhibition at 10 µM: compound at 10 μM
T1 construct: recombinant CREBBP bromodomain obtained from BPS Bioscience, USA; purchased BPS Bioscience, USA
T1 sequence (Q92793 1085-1192 limits assumed): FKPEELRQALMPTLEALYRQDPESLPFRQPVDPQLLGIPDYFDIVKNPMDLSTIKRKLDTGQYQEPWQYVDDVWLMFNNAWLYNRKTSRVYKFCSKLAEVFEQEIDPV
How it was run: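 CREBBP bromodomain (50 nM) preincubated 30 min at room temperature with 500 nM biotinylated ligand in HEPES pH 7.5 buffer with TCEP, then 60 min with compound. Eu-anti-His/APC-streptavidin TR-FRET 665/615 nm ratio read; IC50 from sigmoidal dose-response fit.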

[2] = target: T2, recombinant P300 bromodomain (Homo sapiens, UniProt Q09472); assay: P300 TR-FRET displacement assay; conditions: dose-response, read-out: IC50 (group A, B, C)
T2 construct: recombinant P300 bromodomain obtained from BPS Bioscience, USA; purchased BPS Bioscience, USA
T2 sequence (Q09472 1049-1156 limits assumed): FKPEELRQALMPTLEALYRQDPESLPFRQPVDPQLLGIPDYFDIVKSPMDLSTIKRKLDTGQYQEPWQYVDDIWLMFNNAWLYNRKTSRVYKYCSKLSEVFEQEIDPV
Experimental: The potency of compounds to inhibit P300 enzyme was tested in a TR-FRET displacement assay using recombinant P300 bromodomain obtained from BPS Bioscience, USA. The assay buffer was 50 mM HEPES (pH 7.5), 50 mM NaCl, 0.008% Brij 35, 0.01% BSA, 1 mM TCEP. 50 nM of P300 & 500 nM of Biotinylated ligand was incubated at room temperature for 30 minutes, the reaction was initiated by adding the pre-incubated enzyme ligand mixture to the test compounds. After 60 min incubation, the reaction was stopped by the addition of stop mix containing 1 nM of LANCE Europium-anti-6xHis antibody (Perkin Elmer, USA) and 40 nM of Sure Light Allophycocyanin-Streptavidin (Perkin Elmer, USA). Fluorescence emission of the samples at 665 and 615 nm were measured at an excitation of 340 nm and their ratio was plotted against the compound concentrations to generate dose-response curve.
Selected compounds of the present invention were screened in the above-mentioned assay procedures and IC50 values were determined by fitting the dose-response data to sigmoidal curve fitting equation using Graph pad prism software V7.

[3] = target: T3, recombinant BRD4 FL bromodomain (Homo sapiens, UniProt O60885); assay: BRD4 FL TR-FRET displacement assay; conditions: BRD4 FL; for pIC50: dose-response, read-out: IC50 (group A, B, C); for inhibition at 10 µM: compound at 10 μM, read-out: % Inhibition (10 μM)
T3 construct: fused on or other part: 6xHis tag, inferred from detection with Mab ANTI 6HIS-XL665
How it was run: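 Recombinant BRD4 FL (10 nM) pre-incubated 30 min at room temperature with 300 nM biotinylated acetyl-histone H4 (K5/8/12/16) in 50 mM HEPES pH 7.5, 50 mM NaCl, 500 μM CHAPS, then added to compounds for 30 min. Stopped with Eu-streptavidin/anti-6His-XL665 in KF; 665/615 nm ratio fitted sigmoidally for IC50.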

SMILES | pIC50 [1] | pIC50 [2] | inhibition at 10 µM [1] [%] | pIC50 [3] | inhibition at 10 µM [3] [%]
COc1cc(N2CCN(C)c3cc(N4CCN(C(C)=O)CC4)c(C#N)cc32)c2cc(C)c(=O)n(C)c2c1 [Example 23] | > 7.30 | > 7.60 |  |  | 
COc1ccc(CN2CCN(c3cc(OC)cc4c3cc(C)c(=O)n4C)c3cc(C#N)c(-c4cnn(C)c4)cc32)cc1 [Example 8, 4-(7-methoxy-1,3-dimethyl-2-oxo-1,2-dihydroquinolin-5-yl)-1-(4-methoxybenzyl)-7-(1-methyl-1H-pyrazol-4-yl)-1,2,3,4-tetrahydroquinoxaline-6-carbonitrile] | < 8.00 | < 4.30 |  |  | 
Cc1cc2c(N3CCN(C)c4cc(-c5cnn(C)c5)ncc43)cc(N3C[C@@H]4C[C@H]3CO4)cc2n(C)c1=O [Example 146, 7-((1S,4S)-2-oxa-5-azabicyclo[2.2.1]heptan-5-yl)-1,3-dimethyl-5-(1-methyl-7-(1-methyl-1H-pyrazol-4-yl)-2,3-dihydropyrido[3,4-b]pyrazin-4(1H)-yl)quinolin-2(1H)-one] | > 7.30 | < 4.30 |  |  | 
CNC(=O)C1CCN(c2cc3c(cc(C)c(=O)n3C)c(N3CCCc4cc(-c5cnn(C)c5)c(C(F)F)cc43)n2)C1 (centres unmarked) [Example 201, 1-(5-(7-(Difluoromethyl)-6-(1-methyl-1H-pyrazol-4-yl)-3,4-dihydroquinolin-1(2H)-yl)-1,3-dimethyl-2-oxo-1,2-dihydro-1,6-naphthyridin-7-yl)-N-methylpyrrolidine-3-carboxamide] | > 7.30 | > 7.60 |  |  | 
Cc1cc2c(N3CCCc4cc(-c5cnn(C)c5)c(C(F)F)cc43)cc(N3CCOCC3)cc2n(C)c1=O [Example 178] | > 7.30 | > 7.60 |  |  | 
Cc1cc2c(N3CCCc4cc(-c5cnn(C)c5)c(C(F)F)cc43)nc(N3CC4(COC4)C3)cc2n(C)c1=O [Example 224] | > 7.30 | < 4.30 |  |  | 
Cc1cc2c(N3CCN(C)c4cc(-c5cnn(C)c5)c(C#N)cc43)cc(OC3COC3)cc2n(C)c1=O [Example 40] | > 7.30 | 7.30 to 7.60 |  |  | 
Cc1cc2c(N3CCN(C)c4cc(-c5cnn(C)c5)c(C#N)cc43)cc(OCCN3CCOCC3)cc2n(C)c1=O [Example 36] | > 7.30 | > 7.60 | 100 |  | 
COc1cc(N2CCN(C3CC3)c3cc(N4CCN(C)CC4)c(C#N)cc32)c2cc(C)c(=O)n(C)c2c1 [Example 25] | > 7.30 | 7.30 to 7.60 |  |  | 
COc1cc(N2CCN(C)c3cc(N4CCN(C)CC4)c(C#N)cc32)c2cc(C)c(=O)n(C)c2c1 [Example 19] | > 7.30 | 7.30 to 7.60 |  |  | 
Cc1cc2c(N3CCCc4cc(-c5cnn(C)c5)c(C(F)F)cc43)nc(N3CCC4(COC4)C3)cc2n(C)c1=O [Example 225] | > 7.30 | 7.30 to 7.60 |  |  | 
Cc1cc2c(N3CCN(C)c4cc(-c5cnn(C)c5)c(C#N)cc43)cc(OCC(=O)OC(C)(C)C)cc2n(C)c1=O [Example 3, Tert-butyl 2-((5-(7-cyano-4-methyl-6-(1-methyl-1H-pyrazol-4-yl)-3,4-dihydroquinoxalin-1(2H)-yl)-1,3-dimethyl-2-oxo-1,2-dihydroquinolin-7-yl)oxy)acetate] | < 8.00 | < 4.30 |  |  | 
Cc1cc2c(N3CCCc4cc(-c5cnn(C)c5)c(C(F)F)cc43)nc(N3CC[C@H](O)C3)cc2n(C)c1=O [Example 210] | > 7.30 | 7.30 to 7.60 |  |  | 
COc1cc(N2CCN(C)c3cc(-n4cc(C)cn4)c(C#N)cc32)c2cc(C)c(=O)n(C)c2c1 [Example 10] | > 7.30 | 7.30 to 7.60 |  |  | 
COc1cc(N2CCN(C)c3cc(N4CCOCC4)c(C#N)cc32)c2cc(C)c(=O)n(C)c2c1 [Example 18] | > 7.30 | 7.30 to 7.60 |  |  | 
Cc1cc2c(N3CCN(C)c4cc(-c5cnn(C)c5)c(C#N)cc43)nccc2[nH]c1=O [Example 54] | < 8.00 | < 4.30 | 91 |  | 
Cc1cc2c(N3CCN(C)c4cc(-c5cnn(C)c5)c(F)cc43)cc(N3CCOCC3)cc2n(C)c1=O [Example 48] | > 7.30 | > 7.60 |  |  | 
Cc1ccc2[nH]c(=O)c(C)cc2c1N1CCN(C)c2cc(-c3cnn(C)c3)c(C#N)cc21 [Example 38] | > 7.30 | < 4.30 | 98 |  | 
COCCOc1cc(N2CCN(C)c3cc(-c4cnn(C)c4)c(C#N)cc32)c2cc(C)c(=O)n(C)c2c1 [Example 37] | > 7.30 | > 7.60 | 100 |  | 
Cc1cc2c(N3CCCc4cc(-c5cnn(C)c5)c(C(F)F)cc43)nc(N3CC4CCC(C3)O4)cc2n(C)c1=O [Example 217] | > 7.30 |  |  |  | 46
CNC(=O)C1CN(c2cc3c(cc2C#N)N(c2cc(OC)cc4c2cc(C)c(=O)n4C)CCN3C)C1 [Example 27] | 7.00 to 7.29 |  |  | 5.30 to 5.70 | 
Cc1cc2c(N3CCN(C)c4cc(-c5cnn(C)c5)ncc43)cc(C(C)C)cc2n(C)c1=O [Example 151, 7-Isopropyl-1,3-dimethyl-5-(1-methyl-7-(1-methyl-1H-pyrazol-4-yl)-2,3-dihydropyrido[3,4-b]pyrazin-4(1H)-yl)quinolin-2(1H)-one] | 7.00 to 7.29 |  |  |  | 49

Other lines, results leading:

pIC50 [1] | pIC50 [2] | inhibition at 10 µM [1] [%] | pIC50 [3] | inhibition at 10 µM [3] [%] | SMILES
> 7.30 | 7.30 to 7.60 |  |  |  | COC(=O)c1cc2c(cc1C#N)N(c1cc(OC)cc3c1cc(C)c(=O)n3C)CCN2C [Example 67, methyl 7-cyano-1-(7-methoxy-1,3-dimethyl-2-oxo-1,2-dihydroquinolin-5-yl)-4-methyl-1,2,3,4-tetrahydroquinoxaline-6-carboxylate]
> 7.30 | 7.30 to 7.60 |  |  |  | COc1cc(N2CCN(C)c3cc(-c4cccnc4)c(C#N)cc32)c2cc(C)c(=O)n(C)c2c1 [Example 15]
> 7.30 | > 7.60 |  |  |  | Cc1cc2c(N3CCN(C)c4cc(-c5cnn(C)c5)c(C#N)cc43)cccc2[nH]c1=O [Example 2, 1-methyl-7-(1-methyl-1H-pyrazol-4-yl)-4-(3-methyl-2-oxo-1,2-dihydroquinolin-5-yl)-1,2,3,4-tetrahydroquinoxaline-6-carbonitrile]
< 8.00 | < 4.30 |  |  |  | COc1cc(N2CCN(C)c3ccc(-c4cnn(C)c4)cc32)c2cc(C)c(=O)n(C)c2c1 [Example 80]
> 7.30 | > 7.60 |  |  |  | CNC(=O)c1ccc(-c2cc3c(cc2C(F)F)N(c2cccc4c2cc(C)c(=O)n4C)CCC3)cn1 [Example 176]
 |  | 99 | 5.30 to 5.70 |  | CN1CCN(c2cccc3c2ccc(=O)n3C)c2cc(C#N)c(-c3cnn(C)c3)cc21 [Example 51]
7.00 to 7.29 |  |  | 5.30 to 5.70 |  | Cc1cc2c(N3CCN(C)c4ccc(S(N)(=O)=O)cc43)cccc2n(C)c1=O [Example 85, 4-(1,3-dimethyl-2-oxo-1,2-dihydroquinolin-5-yl)-1-methyl-1,2,3,4-tetrahydroquinoxaline-6-sulfonamide]
< 8.00 |  | 98 | 5.30 to 5.70 |  | CCn1c(=O)c(C)cc2c(N3CCN(C)c4cc(-c5cnn(C)c5)c(C#N)cc43)cccc21 [Example 46]
7.00 to 7.29 |  |  | 5.30 to 5.70 |  | COc1cc(N2CCN(C3CC3)c3ccc(S(N)(=O)=O)cc32)c2cc(C)c(=O)n(C)c2c1 [Example 96]
7.00 to 7.29 |  |  |  | 50 | COc1cc(N2CCN(C)c3cc(-c4cnn(C)c4)ncc32)c2cc(C)c(=O)n(C)c2c1 [Example 116, 7-Methoxy-1,3-dimethyl-5-(1-methyl-7-(1-methyl-1H-pyrazol-4-yl)-2,3-dihydropyrido[3,4-b]pyrazin-4(1H)-yl)quinolin-2(1H)-one]
7.00 to 7.29 |  |  |  | 56 | COc1cc(N2CCN(C)c3ccc(C(C)=O)cc32)c2cc(C)c(=O)n(C)c2c1 [Example 79, 5-(7-Acetyl-4-methyl-3,4-dihydroquinoxalin-1(2H)-yl)-7-methoxy-1,3-dimethylquinolin-2(1H)-one]
7.00 to 7.29 |  |  |  | 15 | COc1cc(N2CCN(C)c3ccc(S(=O)(=O)NC(=O)C(F)(F)F)cc32)c2cc(C)c(=O)n(C)c2c1 [Example 107]
7.00 to 7.29 |  |  | 5.30 to 5.70 |  | Cc1cc2c(N3CCN(C)c4cc(F)c(S(N)(=O)=O)cc43)cccc2n(C)c1=O [Example 87]
< 8.00 |  |  |  | 36 | CC(=O)NS(=O)(=O)c1ccc2c(c1)N(c1cccc3c1cc(C)c(=O)n3C)CCN2C [Example 103, N-((4-(1,3-dimethyl-2-oxo-1,2-dihydroquinolin-5-yl)-1-methyl-1,2,3,4-tetrahydroquinoxalin-6-yl)sulfonyl)acetamide]
